Laboratory results published in US20240269120A1, “Method for Treating an Autoimmune and Inflammatory Disease” (Cellestia Biotech AG, priority 2021, published 2024).

How the values were obtained:
[1] = test system: NSG mice injected with human PBMCs (GvHD); assay: Humanized GvHD mouse model, ex vivo pre-treated PBMCs plus in vivo treatment; design: GvHD clinical score: Body weight loss (D59) / GvHD clinical score: Paleness (D59) / GvHD clinical score: Posture (D59) / GvHD clinical score: Skin integrity (day 45) / GvHD clinical score: Activity score / GvHD clinical score: Fur texture (day 45): scale not given here; conditions: for GvHD clinical score: Body weight loss (D59): label = ex vivo PBMC treatment (7 hrs)/in vivo treatment (3 days), DMSO/Vehicle 2.0; for GvHD clinical score: Paleness (D59) / GvHD clinical score: Activity score / GvHD clinical score: Skin integrity (day 45) / GvHD clinical score: Posture (D59) / GvHD clinical score: Fur texture (day 45) / Cumulative GvHD score: label = ex vivo PBMC treatment/in vivo treatment; for GvHD clinical score: Paleness (D59): DMSO/Vehicle 0.9; for GvHD clinical score: Activity score: DMSO/Vehicle 1.0; for GvHD clinical score: Skin integrity (day 45): DMSO/Vehicle 1.25; for GvHD clinical score: Posture (D59): DMSO/Vehicle 1.3; for GvHD clinical score: Fur texture (day 45): DMSO/Vehicle 1.35; for Cumulative GvHD score: sum of individual scores, DMSO/Vehicle 7.8
Procedure: Humanized GvHD mouse model: 6-8 weeks old NSG mice were intraperitoneally injected with 10 million human peripheral blood mononuclear cells (PBMCs) as below:
A cumulative GvHD clinical score was calculated by addition of scores for individual parameters (e.g. cumulative score=BWL+posture+activity+fur texture+skin integrity+paleness).
Ex-vivo pre-treatment of PBMCs and in-vivo treatment of mice: Human PBMCs were ex-vivo treated with either DMSO or 6-(4-tert-butylphenoxy)pyridin-3-amine and then intraperitoneally injected into NSG mice. Mice were in vivo treated with different compounds as below: • i. DMSO ex vivo hPBMCs treatment (7 hrs), plus vehicle in vivo treatment • ii. DMSO ex vivo hPBMCs treatment (7 hrs), plus 6-(4-tert-butylphenoxy)pyridin-3-amine in vivo treatment for 3 days • iii. 6-(4-tert-butylphenoxy)pyridin-3-amine ex vivo hPBMCs treatment (7 hrs), plus 6-(4-tert-butylphenoxy)pyridin-3-amine in vivo treatment for 3 days • iv. DMSO ex vivo PBMCs treatment (7 hrs) plus Ruxolitinib in vivo treatment for 3 days • v. 6-(4-tert-butylphenoxy)pyridin-3-amine ex vivo hPBMCs treatment (7 hrs), plus Ruxolitinib in vivo treatment for 3 days
(§1) Following PBMC injections, mice were treated with vehicle or 6-(4-tert-butylphenoxy)pyridin-3-amine or Ruxolitinib starting at day 0. Mice were monitored from 60-85 days for symptoms of GvHD and scored according to a standard clinical scoring system for GvHD (Naserian et al., 2018) (see table 1) and a cumulative clinical score was obtained by addition of clinical score for individual parameters. A maximum score of 6 is measured when reaching endpoint. Cell proliferation assay: The effect of compounds on T cell proliferation was quantified using Cell trace violet (CTV). PBMCs/splenocytes were incubated with CTV for 20 minutes at 37° C. Cells were washed twice with RPMI complete medium. CTV labelled cells were stimulated with anti-CD3 and anti-CD28 antibodies and treated with control or compounds and cultured at 37° C. for 96 hours. The cell division index was measured by flow cytometry.

activated CD8 T cells = assay: Cell proliferation assay (Cell trace violet), activated CD8 T cells; format: cell-based; conditions: control 0%
Procedure: as §1
(§2) Flow cytometry analysis: Flow cytometry analysis was performed to quantify cell surface and intracellular markers expression and measure cell division index.

IL-17 = assay: ELISA of supernatant from activated human PBMC cultures: IL-17; format: cell-based; conditions: control 0%
Procedure: (§3) Human PBMCs and mouse splenocyte in vitro stimulation and treatment: Human peripheral blood mononuclear cells (PBMCs) and mouse splenocytes from donors were stimulated in vitro with anti-CD3 and anti-CD28 antibodies. The stimulated cells were simultaneously treated with compounds for 96 hours. The T cells were profiled for different cell surface and intracellular markers and proliferation by flow cytometry.
(§4) ELISA assay: Supernatant from activated human PBMC cultures described above was separated from cells at the end of culture time. Key cytokines (IL-6, IFN-γ, IL-17) were quantified using sandwich ELISA reagents set (Diaclone) following manufacturer's instruction manual.

IL-6 = assay: ELISA of supernatant from activated human PBMC cultures: IL-6; format: cell-based; conditions: control 0%
Procedure: as §3, §4

activated CD4 T cells = assay: Cell proliferation assay (Cell trace violet), activated CD4 T cells; format: cell-based; conditions: control 0%
Procedure: as §1, §2

IFNG = assay: ELISA of supernatant from activated human PBMC cultures: IFNG; format: cell-based; conditions: control 0%
Procedure: as §3, §4

Treg cells = assay: Treg expansion in activated human PBMC cultures (anti-CD3/anti-CD28, flow cytometry); format: cell-based; conditions: anti-CD3 and anti-CD28, 96 hours, control 0%
Procedure: as §3, §2
Viability staining: Cells were transferred into a 96 well conical bottom plate and washed with serum free PBS1×. Cells were incubated with Zombie NIR (Biolegend #423105)+FC block ([…]) for 20 minutes at 4° C. Cells were washed with staining medium (SM) (1×HBSS, 2.5 mM EDTA, 2% NBS
Cell surface marker staining: Cells were stained with antibodies against cell surface markers (CD3, CD4, CD8, CD25, Biolegend or ThermoFisher) for 20 minutes at 4° C. Cells were washed with SM before continuing with nuclear staining.
FOXP3 nuclear staining: Cells were fixed and permeabilized with Foxp3 Transcription Factor Staining Buffer Set (ThermoFisher #00-5523) for 20 minutes at room temperature. […] Results are finally analysed with the software FlowJo v.10.7.1.

[2] = test system: irradiated Balb/c mice transplanted with TCD-BM + splenocytes from C57Bl6 mice (GvHD); assay: Allogeneic bone marrow transplant GvHD model; format: in vivo, mouse; conditions: allo-bone marrow transplant, compared with vehicle
Procedure: Allogeneic Bone marrow transplant: Recipient Balb/c mice were irradiated twice 3.75Gy (T=0 and T=4 h) in an X-ray source irradiator before transplantation at T=8 h. Treatment with antibiotics (Nopil) and analgesic (Dafalgan) was supplemented to drinking water 4 days before injection. Irradiated recipient Balb/c mice were transplanted with 5 million T cell depleted bone marrow+1 million splenocytes. Allogeneic recipient animals were treated with vehicle or 6-(4-tert-butylphenoxy)pyridin-3-amine subcutaneously at 20 mg/kg for two days immediately after allo-BM transplant, given a 10 days treatment holiday to recover body weight loss due to whole body irradiation and then treatment continued at 20 mg/kg. […] Animals were monitored for symptoms of GvHD development (severe body weight loss, alopecia and diarrhea.
Graft vs host disease (GvHD) is an example of alloimmune disease that develops following allo-hematopoetic stem cell transplant (allo-HSCT) in humans. The activity of 6-(4-tert-butylphenoxy)pyridin-3-amine and a calcineurin inhibitor Cyclosprin A was investigated in a mouse model of GvHD following allo-bone marrow transplant. In this model, T cell depleted bone marrow cells (TCD-BM)+splenocytes from C57Bl6 mice were transplanted into irradiated Balb/c mice.

Compound	GvHD clinical score: Body weight loss (D59) [1]	GvHD clinical score: Paleness (D59) [1]	GvHD clinical score: Activity score [1]	GvHD clinical score: Skin integrity (day 45) [1]	GvHD clinical score: Posture (D59) [1]	GvHD clinical score: Fur texture (day 45) [1]	Cumulative GvHD score [1]	Percentage inhibition of CD8 T cells (proliferation) (activated CD8 T cells) [%]	Percentage downregulation of IL-17 (IL-17) [%]	Percentage downregulation of IL-6 (IL-6) [%]	Percentage inhibition of CD4 T cells (proliferation) (activated CD4 T cells) [%]	Percentage downregulation of IFNG (IFNG) [%]	expansion of Treg cells (Treg cells) [%]	prevention of GvHD development (in words) [2]
CC(C)(C)c1ccc(Oc2ccc(N)cn2)cc1 [6-(4-tert-butylphenoxy)pyridin-3-amine/6-(4-tert-butylphenox]	0.9	1.2	0.5	0.7	0.7	1.2	5.2	–	–	–	–	–	–	–
Cc1nc(Oc2ccc(-c3ccc(F)cc3)cc2)ccc1N [6-((4′-fluoro-[1,1′-biphenyl]-4-yl)oxy)-2-methylpyridin-3-amine]	–	–	–	–	–	–	–	74	78	66	40	41	120	–
CC(C)(C)c1ccc(Oc2ccc(N)cn2)cc1 [DMSO/6-(4-tert-butylphenoxy)pyridin-3-amine]	1.35	1.2	0.5	0.65	1.3	0.95	5.95	–	–	–	–	–	–	–
N#CC[C@H](C1CCCC1)n1cc(-c2ncnc3[nH]ccc23)cn1 [DMSO/Ruxolitinib, Ruxolitinib, reference compound]	1.6	0.9	0.9	1.2	1.2	1.1	6.9	–	–	–	–	–	–	–
CNc1ccc(Oc2ccc(-c3cncs3)cc2)nc1 [N-methyl-6-(4-(thiazol-5-yl)phenoxy)pyridin-3-amine]	–	–	–	–	–	–	–	–	85	80	–	38	–	–
Cyclosporin A [reference compound]	–	–	–	–	–	–	–	–	–	–	–	–	–	did not perform better than vehicle treated animals
